{"source": "patent US20100240591A1", "about": "“TPP II INHIBITORS FOR USE IN THE TREATMENT OF AUTOIMMUNE AND INFLAMMATORY DISEASES AND TRANSPLANT REJECTION” (ONCOREG AB, priority 2007, published 2010)", "key": {"TPPII [1]": {"biological_target": "T1, TPPII (Mus musculus, UniProt Q64514)", "T1 sequence (Q64514 2-1262 limits assumed)": "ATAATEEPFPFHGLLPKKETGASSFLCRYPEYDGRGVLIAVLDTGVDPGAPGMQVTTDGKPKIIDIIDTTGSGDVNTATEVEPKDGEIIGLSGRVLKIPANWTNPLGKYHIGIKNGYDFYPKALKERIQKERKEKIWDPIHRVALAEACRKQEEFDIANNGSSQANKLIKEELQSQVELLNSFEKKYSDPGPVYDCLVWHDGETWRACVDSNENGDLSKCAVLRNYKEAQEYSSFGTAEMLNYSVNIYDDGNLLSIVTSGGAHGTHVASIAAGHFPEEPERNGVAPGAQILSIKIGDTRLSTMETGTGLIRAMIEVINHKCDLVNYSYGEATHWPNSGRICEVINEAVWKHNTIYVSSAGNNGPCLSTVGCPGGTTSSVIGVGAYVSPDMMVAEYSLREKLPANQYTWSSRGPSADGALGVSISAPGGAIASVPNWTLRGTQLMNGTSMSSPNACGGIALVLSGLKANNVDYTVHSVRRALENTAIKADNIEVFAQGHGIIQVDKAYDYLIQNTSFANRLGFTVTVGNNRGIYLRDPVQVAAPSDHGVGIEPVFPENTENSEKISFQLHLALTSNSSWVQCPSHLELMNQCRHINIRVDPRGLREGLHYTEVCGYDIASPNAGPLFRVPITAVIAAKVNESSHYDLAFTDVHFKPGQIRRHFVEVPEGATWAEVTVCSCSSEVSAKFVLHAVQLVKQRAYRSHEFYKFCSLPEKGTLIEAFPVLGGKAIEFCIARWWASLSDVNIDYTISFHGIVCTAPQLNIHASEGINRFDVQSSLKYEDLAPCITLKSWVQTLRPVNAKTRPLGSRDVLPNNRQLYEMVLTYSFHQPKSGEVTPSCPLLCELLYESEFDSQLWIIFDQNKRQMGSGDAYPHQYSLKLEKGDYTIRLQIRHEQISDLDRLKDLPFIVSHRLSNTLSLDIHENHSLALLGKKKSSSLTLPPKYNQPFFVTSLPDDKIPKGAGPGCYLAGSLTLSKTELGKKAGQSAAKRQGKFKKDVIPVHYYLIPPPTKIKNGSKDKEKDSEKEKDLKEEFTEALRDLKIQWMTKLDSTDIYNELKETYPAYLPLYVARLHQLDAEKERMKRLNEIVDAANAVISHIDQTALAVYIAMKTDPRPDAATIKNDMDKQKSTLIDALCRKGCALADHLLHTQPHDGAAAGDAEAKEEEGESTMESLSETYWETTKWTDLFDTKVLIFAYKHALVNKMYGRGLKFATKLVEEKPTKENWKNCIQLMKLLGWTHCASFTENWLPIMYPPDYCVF", "assay": "Inhibition of cleavage of AAF-AMC by enriched TPP II (fluorometric peptidase assay)", "type": "biochemical", "design": "1 ug of high molecular weight protein was used as enzyme in peptidase assays; endogenous in cells; EL-4 (mouse T lymphoma) by inference", "settings": "for cleavage of AAF-AMC, single reading: arbitrary but relative units; for cleavage of AAF-AMC, mean: mean of three readings", "protocol": "Protein Purification, Peptidase Assays and Analysis of DNA Fragmentation. 100×10^6 cells were sedimented and lysed by vortexing in glass beads and homogenisation buffer (50 mM Tris Base pH 7.5, 250 mM Sucrose, 5 mM MgCl2, 1 mM DTT). Cellular lysates were submitted to differential centrifugation where a supernatant from a 1 hour centrifugation at 100,000×g (cytosol) was submitted to 100,000×g centrifugation for 3-5 hours, which sedimented high molecular weight cytosolic proteins/protein complexes. The resulting pellet dissolved in 50 mM Tris Base pH 7.5, 30% Glycerol, 5 mM MgCl2, and 1 mM DTT, and 1 micro-g of high molecular weight protein was used as enzyme in peptidase assays or in Western blotting for TPP II expression. To test the activity of TPP II we used the substrate AAF-AMC (Sigma, St. Louis, Mo.), at 100 micro-M concentration in 100 micro-I of test buffer composed of 50 mM Tri Base pH 7.5, 5 mM MgCl2 and 1 mM DTT. Cleavage activity was measured by emission at 460 nm in a LS50B Luminescence Spectrometer (Perkin Elmer, Boston, Mass.). For analysis of DNA fragmentation cells were seeded in 12-well plates at 10^6 cells/ml and exposed to 25 micro-M etoposide, a DNA topoisomerase II inhibitor commonly used as an apoptosis-inducing agent, to starvation (50% PBS). Cells were seeded at 10^6 cells/ml in 12-well plates and incubated for the indicated times, usually 18-24 hours. DNA from EL-4 control and adapted cells was purified by standard chloroform extraction, and 2.5 micro-g of DNA was loaded on 1.8% agarose gel for detection of DNA from apoptotic cells.\nTable 1 contains in vitro data, in fluorometric units which are arbitrary but relative, for the inhibition of cleavage of AAF-AMC (H-Ala-Ala-7-amido-4-methylcoumarin) by compounds at several concentrations. Some beneficial effect is seen for most of the compounds tested.\nTPP II protein was enriched, and then a TPP II-preferred fluorogenic substrate AAF-AMC was used. 100×10^6 cells were sedimented and lysed by vortexing in glass beads and homogenisation buffer (50 mM Tris Base pH 7.5, 250 mM Sucrose, 5 mM MgCl2, 1 mM DTT). Cellular lysates were subjected to differential centrifugation; first the cellular homogenate was centrifuged at 14,000 rpm for 15 min, and then the supernatant was transferred to ultra-centrifugation tubes. Next the sample was ultra-centrifugated at 100,000×g for 1 hour, and the supernatant (denoted as cytosol in most biochemical literature) was subjected to 100,000×g centrifugation for 5 hours, which sedimented high molecular weight cytosolic proteins/protein complexes. The resulting pellet dissolved in 50 mM Tris Base pH 7.5, 30% Glycerol, 5 mM MgCl2, and 1 mM DTT, and 1 ug of high molecular weight protein was used as enzyme in peptidase assays.\nTo test the activity of TPP II we used the substrate and AAF-AMC (Sigma, St. Louis, Mo.), at 100 uM concentration in 100 ul of test buffer composed of 50 mM Tri Base pH 7.5, 5 mM MgCl2 and 1 mM DTT. To stop reactions we used dilution with 900 ul 1% SDS solution. Cleavage activity was measured by emission at 460 nm in a LS50B Luminescence Spectrometer (Perkin Elmer, Boston, Mass.)."}, "EL-4 T-lymphoma cells": {"system": "EL-4 T-lymphoma cells", "assay": "Growth of EL-4 T-lymphoma cells in vivo in syngeneic C57BI/6 mice", "design": "species or system mouse", "settings": "13.8 mg/kg Z-GLA-OH added to 5 mg/kg Dexamethasone, twice weekly, C57BI/6 mice (FIG. 9)", "protocol": "To test whether our TPPII inhibitors could improve the therapeutic effects of an anti-inflammatory drug in vivo, we examined growth of the T cell-derived lymphoma line EL-4 in vivo, in mice subjected to Cortisone-treatment. We used the derivate Dexamethasone at 5 mg/kg, a dose previously reported to cause thymocyte apoptosis, and a block of T cell responses in vivo (Brewer, J. A., Kanagawa, O., Sleckman, B. P., Muglia, L. J., Thymocyte apoptosis induced by T cell activation is mediated by glucocorticoids in vivo. J. Immunol. 2002, 169:1837-43.). The glucocorticoid receptor of T cells is crucial for curtailing lethal immune activation (Brewer J A, Khor B, Vogt S K, Muglia L M, Fujiwara H, Haegele K E, Sleckman B P, Muglia L J. T-cell glucocorticoid receptor is required to suppress COX-2-mediated lethal immune activation. Nat. Med. 2003 October; 9(10):1318-22.). Inhibited activation and proliferation of T cells in vivo by Dexamethasone-treatment is a standard method to treat patients with auto-immune, inflammatory as well as transplantation rejection diseases. It is however clear that disease symptoms, as well as immune activation and proliferation, are sometimes not controlled by Dexamethasone, or other Cortisone derivatives. […]\n5×10^6 EL-4 T-lymphoma cells were inoculated subcutaneously into syngeneic C57BI/6 mice. […] The size of EL-4 lymphoma tumours were measured manually twice weekly. […]"}, "Subtilisin": {"system": "Subtilisin", "settings": "bacterial homologue of the eukaryotic TPP II; cited from earlier work"}, "TPPII [2]": {"biological_target": "T1, TPPII", "assay": "Immuno-cytochemical staining of TPPII in live EL-4 cells treated with inhibitor", "type": "cell-based", "design": "endogenous in cells; host or cells: EL-4 mouse T-cell lymphoma", "settings": "2 hours, 10 micro-M", "procedure": "Immunocytochemistry. Cells were attached to glass cover slips through cytospin and fixed in acetone:methanol (1:1) for 1 hour; then the slides were rehydrated in BSS buffer for 1 hour. The first antibody was added and remained for 1 hour until a brief wash in BSS, after which a secondary conjugate (anti-rabbit-FITC) was added and incubated for 1 hour.\nThen the slides were washed and stained with Hoescht 333258 for 30 min. Finally, the slides were mounted with DABCO mounting buffer and kept at 4° C. until analysis.\nWe performed immuno-cytochemical staining to test whether targeting of TPPII in live cells affected enzyme expression or distribution, by the use of a chicken anti-TPPII serum."}}, "note": "“And” between values parts separate entries of the source, which are not always exact repeats. Equal entries are not always repeated. The star is where a group is joined. Cbz = O=C(OCc1ccccc1)*"}
{"substance": "Cbz-Gly-Leu-Ala-OH [Z-GLA-OH]", "values": [{"measurement": "cleavage of AAF-AMC, single reading", "setting": "TPPII [1]; compound 1 nM", "result": "32.54 fluorometric units and 32.61 fluorometric units and 33.41 fluorometric units"}, {"measurement": "cleavage of AAF-AMC, mean", "setting": "TPPII [1]; compound 1 nM", "result": 32.85, "unit": "fluorometric units"}, {"measurement": "cleavage of AAF-AMC, single reading", "setting": "TPPII [1]; compound 10 nM", "result": "21.74 fluorometric units and 21.93 fluorometric units and 24.44 fluorometric units"}, {"measurement": "cleavage of AAF-AMC, mean", "setting": "TPPII [1]; compound 10 nM", "result": 22.70, "unit": "fluorometric units"}, {"measurement": "cleavage of AAF-AMC, single reading", "setting": "TPPII [1]; compound 100 nM", "result": "14.43 fluorometric units and 14.26 fluorometric units and 14.37 fluorometric units"}, {"measurement": "cleavage of AAF-AMC, mean", "setting": "TPPII [1]; compound 100 nM", "result": 14.35, "unit": "fluorometric units"}, {"measurement": "cleavage of AAF-AMC, single reading", "setting": "TPPII [1]; compound 1 uM", "result": "11.43 fluorometric units and 11.9 fluorometric units and 11.46 fluorometric units"}, {"measurement": "cleavage of AAF-AMC, mean", "setting": "TPPII [1]; compound 1 uM", "result": 11.60, "unit": "fluorometric units"}, {"measurement": "cleavage of AAF-AMC, single reading", "setting": "TPPII [1]; compound 10 uM", "result": "6.47 fluorometric units and 7.66 fluorometric units and 7.49 fluorometric units"}, {"measurement": "cleavage of AAF-AMC, mean", "setting": "TPPII [1]; compound 10 uM", "result": 7.21, "unit": "fluorometric units"}, {"measurement": "cleavage of AAF-AMC, single reading", "setting": "TPPII [1]; compound 100 uM, 0 compound about 47-51", "result": "1.14 fluorometric units and 1.44 fluorometric units and 1.55 fluorometric units"}, {"measurement": "cleavage of AAF-AMC, mean", "setting": "TPPII [1]; compound 100 uM", "result": 1.38, "unit": "fluorometric units"}, {"measurement": "anti-proliferative effect on EL-4 cells in vivo, in combination", "setting": "EL-4 T-lymphoma cells", "result": "increased the anti-proliferative effects of Dexamethasone in some of the mice"}, {"measurement": "inhibition of Subtilisin", "setting": "Subtilisin", "result": "found to inhibit"}, {"measurement": "detection of TPPII by immuno-cytochemical staining", "setting": "TPPII [2]", "result": "rapid decrease in the detection of TPPII, to almost undetectable levels"}]}
